The values below come from patent US6350782B1, “Use of basic amino acids derivatives for lowering ceramide levels” (Sigma-Tau Industrie Farmaceutiche Riunite S.p.A., priority 1995, dated 2002).

SMILES strings stand for the structures.

The subject of test [1] is lymphocyte-associated ceramide. The test is described as follows: Lymphocyte-associated ceramide in patients with hepato-splenomegaly due to viral hepatitis of C type. It is filed as in vivo, human. As to conditions: 4 g bolus intravenous. An excerpt: Ceramide levels can be directly measured by isolating peripheral blood lymphocytes from the patient. Thereafter the cells are centrifuged to eliminate the supernatant, and the lipids are removed from the cell pellet. The organic phase containing the ceramide can be assayed using the “DAG kinase assay” for phosphorylating the ceramide which is then evidenced by autoradiography [Cifone, M. G. et al., J. Exp. Med., 180(4): 1547-52]. Three patients with hepato-splenomegaly due to viral hepatitis of C type were treated with 4 g of L-carnitine bolus by intravenous route. The lymphocyte-associated ceramide was determined before and after 3 and 48 hours following the infusion.

Test [2] relates to lymphocyte-associated ceramide. The test is described as follows: Lymphocyte-associated ceramide in hyperthyroidism patients treated with metimazole. It is filed as in vivo, human. As to conditions: 8 g per day oral, 4 weeks. The text has this:
Ceramide levels can be directly measured by isolating peripheral blood lymphocytes from the patient. Thereafter the cells are centrifuged to eliminate the supernatant, and the lipids are removed from the cell pellet. The organic phase containing the ceramide can be assayed using the “DAG kinase assay” for phosphorylating the ceramide which is then evidenced by autoradiography [Cifone, M. G. et al., J. Exp. Med., 180(4): 1547-52]. Four patients affected by hyperthyroidism who had been treated with metimazole (15 mg by oral route, daily) for more than eight months, were treated for 4 weeks with 8 g per day L-carnitine by oral route. The lymphocyte-associated ceramide was determinded before and after the treatment.

The test system of test [3] is peripheral blood lymphocyte-associated ceramide. The test is described as follows: Peripheral blood lymphocyte-associated ceramide in patients with protein catabolism and lipidic depletion from tubercular infection. Format: in vivo, human. As to conditions: 8 g per day parenteral, two weeks. An excerpt: (§1) Ceramide levels can be directly measured by isolating peripheral blood lymphocytes from the patient. Thereafter the cells are centrifuged to eliminate the supernatant, and the lipids are removed from the cell pellet. The organic phase containing the ceramide can be assayed using the “DAG kinase assay” for phosphorylating the ceramide which is then evidenced by autoradiography [Cifone, M. G. et al., J. Exp. Med., 180(4): 1547-52].
Four patients affected by protein catabolism and lipidic depletion as a consequence of tubercular infection were treated for two weeks with 8 g per day L-carnitine by parenteral route.
The peripheral blood lymphocyte-associated ceramide was determined before and after the treatment.

In test [4] the test system is Peripheral blood lymphocytes. The test is described as follows: Ceramide in anti-Fas antibody stimulated peripheral blood lymphocytes (DAG kinase assay). The settings on record: for Ceramide: 30 min at 37° C., then anti-Fas antibody 30 min, Control 20, Control + anti-Fas antibody 81.6; for Effect on synthesis of ceramide in vitro: anti-Fas stimulated lymphocytes. It is filed as cell-based.
Source text: as §1
Peripheral blood lymphocytes were isolated according to the classical methodologies. The cells were incubated with L-carnitine (200 mcg/ml) or with isovaleryl L-carnitine for 30 min at 37° C., and afterwards with an anti-Fas monoclonal antibody for another 30 min. The cells were then centrifuged, eleminating the supernatant, and the cell pellet was delipidized. The organic phase (containing the ceramide) was assayed in the “DAG kinase assay” for phosphorylating ceramide which subsequently was evidenced by autoradiography.
It is known that the cells suitably stimulated (i.e. with Fas-L, inter-leukin-1, etc.) generate ceramide. An anti-Fas antibody was employed to increase the production of ceramide from a basal value (20 picomoles per 10^6 cells) to 81.6 picomoles per 10^6 cells.

The test system of the next test is Ceramide in the muscles. The test is described as follows: Muscle ceramide in patients with symptomatic neuro-myopathy (chronic fatigue syndrome). Format: in vivo, human. The settings on record: 3 g per day oral, two months. How it is done:
Two patients affected by symptomatic neuro-myopathy (chronic fatigue syndrome) were treated with 3 g per clay of L-carnitine by oral route through two months. Ceramide was measured in the muscles before and after the administration.

For `C[N+](C)(C)C[C@H](O)CC(=O)[O-]` [L-carnitine], in test [1], the “Duration of the effect on ceramide levels” value is recorded as “remains at least for two days”. Further, in test [1] (after 3 hours from the infusion), the “Effect of bolus on ceramide levels” value was “inhibited the increase of ceramide levels already after 3 hours”. Besides, the “Ceramide After 3 hrs” value stood at 12 picomoles/10^6 cells in test [1] (Patient 1, pre-treatment 65); 32 picomoles/10^6 cells in test [1] (Patient 2, pre-treatment 77); 24 picomoles/10^6 cells in test [1] (Patient 3, pre-treatment 79). The “Ceramide After 48 hrs” value in test [1] (Patient 1, pre-treatment 65) is listed as 31 picomoles/10^6 cells; in test [1] (Patient 2, pre-treatment 77), 21 picomoles/10^6 cells; in test [1] (Patient 3, pre-treatment 79), 23 picomoles/10^6 cells. Moreover, the Ceramide post-treatment amounted to 26 picomoles/10^6 cells in test [2] (Patient 1, pre-treatment 73); 27 picomoles/10^6 cells in test [2] (Patient 2, pre-treatment 45); 36 picomoles/10^6 cells in test [2] (Patient 3, pre-treatment 111); 18 picomoles/10^6 cells in test [2] (Patient 4, pre-treatment 69); 59 picomoles/10^6 cells in test [3] (Patient 1, pre-treatment 127); 77 picomoles/10^6 cells in test [3] (Patient 2, pre-treatment 265). Moreover, the Ceramide post-treatment is reported as 152 picomoles/10^6 cells in test [3] (Patient 3, pre-treatment 301); 54 picomoles/10^6 cells in test [3] (Patient 4, pre-treatment 78); 28 picomoles per mg of proteins in the test with Ceramide in the muscles (Patient 1, pre-treatment 76); 46 picomoles per mg of proteins in the test on Ceramide in the muscles (Patient 2, pre-treatment 142). The Ceramide in test [4] (100 mcg/ml) came to 7.3 picomoles per 10^6 cells. The “Effect on synthesis of ceramide in vitro” value in test [4] is listed as “inhibit the synthesis of ceramide in vitro”.
As to `CC(C)CC(=O)O[C@H](CC(=O)[O-])C[N+](C)(C)C` [isovaleryl L-carnitine], the Ceramide in test [4] (50 mcg/ml) is recorded as 8.6 picomoles per 10^6 cells; in test [4] (100 mcg/ml), 7.3 picomoles per 10^6 cells. Moreover, in test [4], the “Effect on synthesis of ceramide in vitro” value is recorded as “inhibit the synthesis of ceramide in vitro”.
